Columns and labels:
[1] = target: T1, chimeric P2X7/1 receptor 279–285 (left flipper) (Homo sapiens, UniProt Q99572, DEL279-281/I21V/M24R/N16P/N25R/N284E/Q22R/R20V/S23N/T19I/T282Y/T283E/V285K/Y26L); experiment: Two-electrode voltage clamp of ATP-evoked currents in Xenopus oocytes; type: cell-based; conditions: chimera 279–285; for IC50: inhibition of EC90 ATP response
T1 construct: expressed in transfected cells; host or cells: Xenopus laevis oocytes (cRNA injection)
T1 sequence (Q99572 with tags, fused parts or gaps N16P/T19I/R20V/I21V/Q22R/S23N/M24R/N25R/Y26L/DEL279-281/T282Y/T283E/N284E/V285K): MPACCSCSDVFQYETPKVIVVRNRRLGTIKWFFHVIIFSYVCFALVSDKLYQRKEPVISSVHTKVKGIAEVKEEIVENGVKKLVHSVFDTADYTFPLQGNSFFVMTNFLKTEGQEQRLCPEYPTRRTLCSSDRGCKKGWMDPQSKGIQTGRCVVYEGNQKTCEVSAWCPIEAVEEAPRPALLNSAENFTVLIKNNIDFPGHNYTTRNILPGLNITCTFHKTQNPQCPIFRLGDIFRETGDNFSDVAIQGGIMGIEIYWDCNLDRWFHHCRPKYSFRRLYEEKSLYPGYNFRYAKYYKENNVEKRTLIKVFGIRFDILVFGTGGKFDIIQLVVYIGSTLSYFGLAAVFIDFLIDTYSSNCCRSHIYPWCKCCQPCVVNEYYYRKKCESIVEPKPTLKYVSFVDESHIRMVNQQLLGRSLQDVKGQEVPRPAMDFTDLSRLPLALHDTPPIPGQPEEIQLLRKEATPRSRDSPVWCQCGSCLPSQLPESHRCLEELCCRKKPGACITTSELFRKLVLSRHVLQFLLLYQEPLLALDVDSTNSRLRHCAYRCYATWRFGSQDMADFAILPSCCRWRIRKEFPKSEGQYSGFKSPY
Experimental: (§1) The production of the correct mutations and absence of coding errors was determined by DNA sequencing (Automated ABI Sequencing Service, University of Leicester, UK). cRNA was generated for the mutants and 50 nl (50 ng) was injected into manually defoliculated stage V Xenopus laevis oocytes using an Inject+Matic microinjector (J.A. Gabay, Inject+Matic, Geneva, Switzerland). Injected oocytes were stored at 16°C in ND96 buffer [in millimolar concentrations, NaCl 96, KCl 2, CaCl2 1.8, MgCl2 1, sodium pyruvate 5, and HEPES 5 (pH 7.6) supplemented with 50 μg/ml gentamycin and 50 μg/ml tetracycline]. Three to seven days postinjection two-electrode voltage clamp recordings were made from oocytes bathed in divalent-free ND96 buffer (in millimolar concentrations, NaCl 96, KCl 2, sodium pyruvate 5, HEPES 5, and 0.1 flufenamic acid, pH 7.6). Oocytes were voltage clamped at a holding potential of −60 mV with a GeneClamp500B amplifier (Molecular Devices).
(§2) Inhibition by the antagonists was expressed as the percentage of the peak current amplitude of an EC90 concentration of ATP recorded before the application of antagonist (ATP gave reproducible responses to ATP in the absence of antagonist). Inhibition curves were fitted with the Hill equation (variable slope) using GraphPad Prism 6 (GraphPad Software, San Diego, CA). […] Individual concentration-response curves were generated for individual experiments, and statistical analysis was carried out on the data generated. […] Data are shown as mean ± S.E.M. In all cases n ≥ 3 for all data points.

[2] = target: T2, P2X7R point mutant Q116A (Homo sapiens, UniProt Q99572, I21V/M24R/N16P/N25R/Q116A/Q22R/R20V/S23N/T19I/Y26L); experiment: as above; type: cell-based; conditions: EC90 ATP, mean ± S.E.M.
T2 construct: expressed in transfected cells; host or cells: Xenopus laevis oocytes (cRNA injection)
Experimental: Injected oocytes were stored at 16°C in ND96 buffer [in millimolar concentrations, NaCl 96, KCl 2, CaCl2 1.8, MgCl2 1, sodium pyruvate 5, and HEPES 5 (pH 7.6) supplemented with 50 μg/ml gentamycin and 50 μg/ml tetracycline]. Three to seven days postinjection two-electrode voltage clamp recordings were made from oocytes bathed in divalent-free ND96 buffer (in millimolar concentrations, NaCl 96, KCl 2, sodium pyruvate 5, HEPES 5, and 0.1 flufenamic acid, pH 7.6). Oocytes were voltage clamped at a holding potential of −60 mV with a GeneClamp500B amplifier (Molecular Devices).
as §2

[3] = system: chimeric P2X7/1 receptor 295–310; experiment: cell-based; type: cell-based, human; conditions: chimera 295–310
Experimental: (§3) Additional point mutants were made using the QuikChange mutagenesis kit (Stratagene California, La Jolla, CA). The production of the correct mutations and absence of coding errors was determined by DNA sequencing (Automated ABI Sequencing Service, University of Leicester, UK). cRNA was generated for the mutants and 50 nl (50 ng) was injected into manually defoliculated stage V Xenopus laevis oocytes using an Inject+Matic microinjector (J.A. Gabay, Inject+Matic, Geneva, Switzerland). Injected oocytes were stored at 16°C in ND96 buffer [in millimolar concentrations, NaCl 96, KCl 2, CaCl2 1.8, MgCl2 1, sodium pyruvate 5, and HEPES 5 (pH 7.6) supplemented with 50 μg/ml gentamycin and 50 μg/ml tetracycline]. Three to seven days postinjection two-electrode voltage clamp recordings were made from oocytes bathed in divalent-free ND96 buffer (in millimolar concentrations, NaCl 96, KCl 2, sodium pyruvate 5, HEPES 5, and 0.1 flufenamic acid, pH 7.6). Oocytes were voltage clamped at a holding potential of −60 mV with a GeneClamp500B amplifier (Molecular Devices).
as §2

[4] = target: T3, chimeric P2X7/1 receptor 105–114 (Homo sapiens, UniProt Q99572, E112P/G113K/I21V/K110V/L109I/M24R/N16P/N25R/Q22R/R20V/S23N/T19I/Y26L); experiment: Two-electrode voltage clamp of ATP-evoked currents in Xenopus oocytes; type: cell-based
T3 construct: expressed in transfected cells; host or cells: Xenopus laevis oocytes (cRNA injection)
T3 sequence (Q99572 1-595 N16P/T19I/R20V/I21V/Q22R/S23N/M24R/N25R/Y26L/L109I/K110V/E112P/G113K): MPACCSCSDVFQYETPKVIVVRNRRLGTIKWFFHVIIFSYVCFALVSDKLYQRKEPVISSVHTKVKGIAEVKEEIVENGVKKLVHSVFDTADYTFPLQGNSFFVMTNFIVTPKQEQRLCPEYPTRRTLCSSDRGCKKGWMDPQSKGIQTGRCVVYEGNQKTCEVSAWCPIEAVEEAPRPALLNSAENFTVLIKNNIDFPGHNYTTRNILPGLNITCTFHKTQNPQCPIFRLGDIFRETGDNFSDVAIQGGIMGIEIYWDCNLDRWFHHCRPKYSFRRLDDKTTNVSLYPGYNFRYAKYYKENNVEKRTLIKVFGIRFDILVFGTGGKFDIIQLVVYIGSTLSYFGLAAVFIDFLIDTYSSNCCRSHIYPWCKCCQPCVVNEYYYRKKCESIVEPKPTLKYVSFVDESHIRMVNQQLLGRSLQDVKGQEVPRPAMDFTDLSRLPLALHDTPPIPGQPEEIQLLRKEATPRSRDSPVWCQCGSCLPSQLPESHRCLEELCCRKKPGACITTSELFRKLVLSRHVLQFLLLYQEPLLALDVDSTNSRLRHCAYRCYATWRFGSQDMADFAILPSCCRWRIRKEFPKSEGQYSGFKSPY
Experimental: as §3, §2

[5] = system: P2X7R left flipper point mutant N284A; experiment: as above; type: cell-based, human
Experimental: as §1
Inhibition by the antagonists was expressed as the percentage of the peak current amplitude of an EC90 concentration of ATP recorded before the application of antagonist (ATP gave reproducible responses to ATP in the absence of antagonist). Inhibition curves were fitted with the Hill equation (variable slope) using GraphPad Prism 6 (GraphPad Software, San Diego, CA). […]

[6] = target: T4, P2X7-2Nβ 73–79 deletion (Homo sapiens, UniProt Q99572, DEL73-79/I21V/M24R/N16P/N25R/Q22R/R20V/S23N/T19I/Y26L); parameters: method as in Allsopp et al., 2017; conditions: ref Allsopp et al., 2017; cited from earlier work
T4 construct: expressed in transfected cells; host or cells: Xenopus laevis oocytes (cRNA injection)
T4 sequence (Q99572 with tags, fused parts or gaps N16P/T19I/R20V/I21V/Q22R/S23N/M24R/N25R/Y26L/DEL73-79): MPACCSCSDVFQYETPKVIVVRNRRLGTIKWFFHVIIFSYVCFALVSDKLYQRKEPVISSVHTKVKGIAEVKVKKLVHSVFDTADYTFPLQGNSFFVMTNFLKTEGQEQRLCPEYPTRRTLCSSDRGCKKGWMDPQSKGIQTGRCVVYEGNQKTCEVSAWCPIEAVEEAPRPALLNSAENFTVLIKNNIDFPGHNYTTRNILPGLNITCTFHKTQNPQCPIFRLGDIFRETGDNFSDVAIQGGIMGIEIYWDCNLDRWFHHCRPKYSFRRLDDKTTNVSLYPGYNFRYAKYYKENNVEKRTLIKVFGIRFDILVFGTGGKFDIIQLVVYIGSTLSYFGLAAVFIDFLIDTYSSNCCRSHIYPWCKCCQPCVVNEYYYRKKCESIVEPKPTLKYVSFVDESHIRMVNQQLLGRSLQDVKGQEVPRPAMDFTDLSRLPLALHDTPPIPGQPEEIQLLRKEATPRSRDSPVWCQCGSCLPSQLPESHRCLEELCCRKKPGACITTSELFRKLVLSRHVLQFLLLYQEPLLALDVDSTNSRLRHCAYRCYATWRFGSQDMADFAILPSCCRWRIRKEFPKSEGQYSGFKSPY

[7] = target: T5, hP2X1R (Homo sapiens, UniProt P51575); experiment: Two-electrode voltage clamp of ATP-evoked currents in Xenopus oocytes; type: cell-based
T5 construct: expressed in transfected cells; host or cells: Xenopus laevis oocytes (cRNA injection)
T5 sequence (P51575 whole entry): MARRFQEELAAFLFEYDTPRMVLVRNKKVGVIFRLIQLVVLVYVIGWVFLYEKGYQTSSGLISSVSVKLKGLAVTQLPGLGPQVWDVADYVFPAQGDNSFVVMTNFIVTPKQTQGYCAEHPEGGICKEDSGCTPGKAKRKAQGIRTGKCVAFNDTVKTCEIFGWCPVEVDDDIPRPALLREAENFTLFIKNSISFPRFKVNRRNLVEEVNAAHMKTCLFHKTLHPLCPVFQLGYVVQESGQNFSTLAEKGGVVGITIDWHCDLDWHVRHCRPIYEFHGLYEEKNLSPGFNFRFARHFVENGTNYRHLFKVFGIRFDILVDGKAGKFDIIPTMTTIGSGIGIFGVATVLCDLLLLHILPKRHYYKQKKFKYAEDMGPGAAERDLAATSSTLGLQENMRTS

T2 sequence (Q99572 whole entry N16P/T19I/R20V/I21V/Q22R/S23N/M24R/N25R/Y26L/Q116A): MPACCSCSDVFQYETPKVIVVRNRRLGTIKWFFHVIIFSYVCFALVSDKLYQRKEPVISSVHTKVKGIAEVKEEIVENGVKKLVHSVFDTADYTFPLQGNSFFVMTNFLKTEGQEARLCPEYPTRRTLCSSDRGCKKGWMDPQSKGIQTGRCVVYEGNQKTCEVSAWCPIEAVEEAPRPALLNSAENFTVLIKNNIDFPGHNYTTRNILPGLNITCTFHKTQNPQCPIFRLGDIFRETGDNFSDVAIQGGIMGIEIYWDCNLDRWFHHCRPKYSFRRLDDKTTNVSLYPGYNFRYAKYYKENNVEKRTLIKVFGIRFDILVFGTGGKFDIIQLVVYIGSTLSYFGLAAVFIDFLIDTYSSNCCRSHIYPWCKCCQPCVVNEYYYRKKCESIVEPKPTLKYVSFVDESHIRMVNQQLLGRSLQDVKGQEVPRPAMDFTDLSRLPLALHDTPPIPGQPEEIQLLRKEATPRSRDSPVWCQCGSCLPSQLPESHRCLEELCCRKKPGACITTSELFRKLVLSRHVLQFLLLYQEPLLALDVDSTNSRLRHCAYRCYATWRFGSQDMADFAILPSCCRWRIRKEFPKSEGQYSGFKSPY

SMILES	fold decrease in antagonist sensitivity relative to P2X7-2Nβ [1] [fold]	IC50 [1] [µM]	IC50 [2] [nM]	fold decrease in antagonist sensitivity relative to P2X7-2Nβ [3] [fold]	IC50 [4] [nM]	effect on antagonist potency relative to P2X7-2Nβ ([4]; chimera 105–114)	effect on antagonist sensitivity relative to P2X7-2Nβ [5]	fold decrease in antagonist sensitivity [6] [fold]	inhibition of ATP (EC90)-evoked currents [7]
COc1ccc(CC(=O)NC(N=C(NC#N)Nc2cccc3ncccc23)C(C)(C)C)cc1OC (stereo not drawn) [A740003, N-[1-[[(cyanoamino)(5-quinolinylamino)methylene]amino]-2,2-dimethylpropyl]-3,4-dimethoxybenzeneacetamide]	~9	0.631	316	~5	100	no effect	no effect		
Cl.Cl.O=C(CC12CC3CC(CC(C3)C1)C2)Nc1cccc2nc(NCCNCCO)ccc12 [AZ10606120, N-[2-[[2-[(2-hydroxyethyl)amino]ethyl]amino]-5-quinolinyl]-2-tricyclo[3.3.1.13,7]dec-1-ylacetamide dihydrochloride]								40	
Cl.Clc1cccc(-c2nnnn2Cc2cccnc2)c1Cl.O [A438079, 3-(5-(2,3-dichlorophenyl)-1H-tetrazol-1-yl)methyl pyridine hydrochloride hydrate]		31.6	1260		501				ineffective

Reference: article PMC5896373 (Molecular Pharmacology, 2018)
